Source: US20260200849A1, “CATIONIC LIPIDS AND PREPARATION METHOD THEREOF” (RiboX Therapeutics HK Limited, priority 2024, published 2026)
“And” between values parts separate entries of the source, which are not always exact repeats. Equal values may be shown once.

Assays:
C57BL/6J mice [1] = experiment: In vivo expression by ID, whole-body/injection site skin/lymph node luminescence; settings: intradermal 0.15 mg/kg, 72 h post injection, female C57BL/6J mice N=3, Formulation 001, RNA 331
Protocol: 7-8 week old, female C57BL/6J mice (N=3) were injected with 0.15 mg*kg−1 of RNA-LNPs encoding for firefly-luciferase by intradermal injection. At 72-hours post injection, animals were intraperitoneally injected with 15 mg/mi of Luciferin substrate and whole-body/injection site skin/lymph node luminescence were determined by a bioluminescent in vivo imaging system (IVIS).

injection site skin = experiment: In vivo tolerability after intradermal injection: H&E staining of injection site skin; set-up: species or system C57BL/6J mice; key to Infiltration, mononuclear cells, dermis/subcutaneous, focal, Grade / Edema, subcutaneous, focal, Grade / Erosion, focal, Grade / Skin, Grade: 1==minimal; 2=mild; 3=moderate; 4=marked; 5=severe; N=Normal; NA=Not applicable; —=No data; settings: intradermal 0.15 mg/kg, 72 h, Formulation 001, RNA 331; for Edema, subcutaneous, focal, Grade / Erosion, focal, Grade / Infiltration, mononuclear cells, dermis/subcutaneous, focal, Grade: per animal; for Total score: sum of lesion grades of the group (N=3)
Protocol: 7-8 week old, female C57BL/6J mice (N=3) were injected with 0.15 mg*kg−1 of RNA-LNIPs encoding for firefly-luciferase by intradermal injection. At 72-hours post injection, injection site skin from each animal was collected in 10% formalin, for H&E staining. PBS group (N=2) as control. (Note: 1==minimal, 2=mild, 3=moderate, 4=marked, 5=severe; N=Normal; NA=Not applicable; —=No data)

Hep G2 cells [2] = experiment: In vitro toxicity: Hep G2 cell viability by CellTiter-Glo; format: cell-based; settings: 72 hours post transfection, cell only = 100%
Protocol: 2E5 Hep G2 cells were transfected with 1 μg/mL RNA-LNPs. At 72 hours post transfection, cell viability (2-well repeat) was determined with the CellTiter-Glo® reagent kit, according to the kit protocol, measured by a luminometer. Cell only as control (100%).
The cell viability was calculated according to the following formula: […]

Hep G2 cells [3] = experiment: In vitro expression: luciferase activity in Hep G2 cells transfected with RNA-LNPs; format: cell-based; settings: 100 ng/mL RNA-LNPs, 72 hours post transfection
Protocol: 2E5 Hep G2 cells were transfected with 100 ng/mL of RNA-LNPs encoding for firefly-luciferase. At 72 hours post transfection, the cells were washed and lysed. The luciferase expression (2-well repeat) was determined in the cell lysates with the luciferase assay reagent kit (Promega), according to the kit protocol, luciferase activity was measured by a luminometer.

Balb/c mice = experiment: In vivo expression by IV, 0.05 mg/kg luciferase RNA-LNPs, IVIS luminescence; settings: Formulation No. 010, RNA No. 331, female Balb/c mice, 0.05 mg*kg−1 intravenous; for Whole body at 24 h (p/s) (Mean): 24 hours post injection; for Whole body at 72 h (p/s) (Mean): 72 hours post injection
Outline: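 IVIS bioluminescence was read after IP luciferin (15 mg/ml): whole-body at 24 and 72 h, or whole-body/liver/spleen at 24 h. Dosing was a single IV injection of 0.05 mg*kg−1 RNA-LNPs encoding firefly luciferase into 7-8 week old female Balb/c mice, N=3.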

[4] = LNP size and polydispersity index (PDI) by dynamic light scattering (Zetasizer); format: physicochemical; settings: for Size (nm): Formulation No. 010 (Ionizable lipid:DSPC:cholesterol:DSPE-PEG2000 = 38:30:30:2, N/P 6), RNA No. 331
Protocol: (§1) The LNP size and polydispersity index (PDI), determined by dynamic light scattering (DLS), and zeta potential were measured by a Zetasizer machine (Malvern). RNA concentration and encapsulation efficacy (EE %) were analyzed by the Quant-IT Ribogreen kit by calculating the percentage encapsulation at 100%—(RNA-LNPs/RNA-LNPs with Triton X-100).

MCP-1 = experiment: In vivo tolerability by IM: serum MCP-1 by Luminex; settings: IM 1.0 mg/kg, male C57BL/6J mice N=3, Formulation 001, RNA 331
Protocol: (§2) 6-8 week old, male C57BL/6J mice (N=3) were injected with 1.0 mg*kg−1 of RNA-LNPs encoding for firefly-luciferase by intramuscular injection. At 2- and 24-hours post injection, about 40 μL blood was harvested and immediately added to the procoagulant containing tube. Stand for 30 min at room temperature and then centrifuged at 2500 g×10 min to obtain serum. About 15 μL serum samples were aliquoted for cytokine (MCP-1 and IL-6) detection by Luminex (ProcartaPlex Mouse 2-plex, Thermo). PBS group as negative control.

C57BL/6J mice [5] = experiment: In vivo expression by IM, luciferase RNA-LNPs, whole-body/injection site muscle/organ luminescence; settings: IM 1.0 mg/kg, 24 h post injection, male C57BL/6J mice N=3, Formulation 001, RNA 331
Protocol: 6-8 week old, male C57BL/6J mice (N=3) were injected with 1.0 mg*kg−1 of RNA-LNPs encoding for firefly-luciferase by intramuscular injection. At 24-hours post injection, animals were intraperitoneally injected with 15 mg/ml of Luciferin substrate and whole-body/injection site muscle/liver/spleen/kidney/heart/lung luminescence were determined by a bioluminescent in vivo imaging system (IVIS).

IL-6 = experiment: In vivo tolerability by IM: serum IL-6 by Luminex; settings: IM 1.0 mg/kg, male C57BL/6J mice N=3, Formulation 001, RNA 331
Protocol: as §2

[6] = RNA encapsulation efficacy (EE %) by Quant-IT Ribogreen kit; format: physicochemical; settings: LNP
Protocol: as §1

[7] = 1 μg/mL RNA-LNPs, Formulation 001, RNA 331
[8] = Formulation No. 010, RNA No. 331, 1 μg/mL RNA-LNPs
[9] = Formulation No. 010, RNA No. 331 (firefly-luciferase)
[10] = Formulation No. 001, RNA No. 331
[11] = Formulation No. 010, RNA No. 331

Row | SMILES | Injection site Skin (p/s) (C57BL/6J mice [1]) | Lymph node (p/s) (C57BL/6J mice [1]) | Whole body (p/s) (C57BL/6J mice [1]) | Edema, subcutaneous, focal, Grade (injection site skin) | Erosion, focal, Grade (injection site skin) | Infiltration, mononuclear cells, dermis/subcutaneous, focal, Grade (injection site skin) | Total score (injection site skin) | In vitro cell viability (%) (Mean) (Hep G2 cells [2]; [7]) | In vitro cell viability (%) (Mean) (Hep G2 cells [2]; [8]) | In vitro Expression (Mean) (Hep G2 cells [3]; Formulation 001, RNA 331) | In vitro Expression (Mean) (Hep G2 cells [3]; [9]) | Whole body at 24 h (p/s) (Mean) (Balb/c mice) | Whole body at 72 h (p/s) (Mean) (Balb/c mice) | PDI [4, 10] | Size [4, 10] [nm] | Size (nm) [4] [nm] | PDI [4, 11] | MCP-1 at 2 h (MCP-1) [pg/mL] | MCP-1 at 24 h (MCP-1) [pg/mL] | Heart (p/s) (C57BL/6J mice [5]) | also measured
1 | CCCCCCCC/C=C\CCCCCCCC(=O)NC(COC(=O)NCCN1CCCCCC1)C(=O)OCCCCCCCCOC(=O)C(CCCCCC)CCCCCCCC (stereo not drawn) [Lipid 701] | 3.34E+07 | 6.94E+06 | 6.46E+07 | — and 1 (2×) | — | 1 | 5 | 74.24 | 96.43 | 6.00E+05 | 3.96E+05 | 4.00E+08 | 1.08E+08 | 0.10 | 76.05 | 60.60 | 0.07 | 628 | 4620 | 9.37E+05 | Injection site muscle (p/s) (C57BL/6J mice [5]): 5.32E+08 p/s; Kidney (p/s) (C57BL/6J mice [5]): 2.70E+07 p/s; Liver (p/s) (C57BL/6J mice [5]): 2.35E+08 p/s; Lung (p/s) (C57BL/6J mice [5]): 2.10E+06 p/s; Spleen (p/s) (C57BL/6J mice [5]): 1.24E+08 p/s; Whole body (p/s) (C57BL/6J mice [5]): 8.27E+08 p/s; IL-6 at 2 h (IL-6): 21.2 pg/mL; IL-6 at 24 h (IL-6): 108 pg/mL; EE (%) [6, 10]: 92.16%; EE (%) [6, 11]: 95.09%
2 | CCCCC/C=C\C/C=C\CCCCCCCC(=O)NC(COC(=O)NCCN1CCCCC1)C(=O)OCCCCCC(=O)OCC(CCCCCCCC)CCCCCCCCCC (stereo not drawn) [Lipid 728] | 4.04E+06 | 1.03E+06 | 3.58E+07 | — (2×) and 1 | — | 1 | 4 | 71.13 | 90.20 | 3.37E+05 | 4.71E+05 | 1.86E+08 | 5.78E+07 | 0.05 | 65.33 | 56.88 | 0.09 | 421 | 3740 | 4.42E+05 | Injection site muscle (p/s) (C57BL/6J mice [5]): 5.61E+08 p/s; Kidney (p/s) (C57BL/6J mice [5]): 1.42E+07 p/s; Liver (p/s) (C57BL/6J mice [5]): 7.48E+07 p/s; Lung (p/s) (C57BL/6J mice [5]): 1.56E+06 p/s; Spleen (p/s) (C57BL/6J mice [5]): 3.40E+07 p/s; Whole body (p/s) (C57BL/6J mice [5]): 6.11E+08 p/s; IL-6 at 2 h (IL-6): 24.3 pg/mL; IL-6 at 24 h (IL-6): 143 pg/mL; EE (%) [6, 10]: 96.53%; EE (%) [6, 11]: 96.83%
